Reference: patent US11542497B2, “Method for evaluating multiple different genes of interest” (THE UNIVERSITY OF TOKYO, priority 2017, dated 2023)

Columns and labels:
[1] = tested on: DLD1 BRCA2 (−/−) line with introduced BRCA2 variants; assay: MANO-B method, olaparib at varied concentrations (Example 7); assay type: cell-based; details: for relative read count (no chemical = 1): Day 12, average of n=3
Protocol: (§1) First, 3 different unique bar code sequences were added (to conduct experiments at n=3) to each of 11 different plasmids including: plasmids having wild-type BRCA2, K2729N mutation (benign), D2723H mutation (pathogenic), and 7 truncate variants in which a stop codon is introduced about every 500 amino acids (K485*, L997*, Q1502*, K1984*, C2535*, W2970*, C3304*); and piggyBac empty vector (System Biosciences, LLC). Accordingly, the total of 33 different plasmids were prepared. DLD1 BRCA2 (−/−) line was transfected with each plasmid and a transposase expression plasmid pCMV-hyPBase (Sanger Institute) in accordance with the manufacturer's protocol. In this way, cells having BRCA genes stably introduced in their genome were prepared.
(§2) Different cell lines having mutated genes tagged with bar code sequences introduced were mixed in equal numbers. At this time point, genomic DNA was once extracted (Day 0). Here, a PARP inhibitor (olaparib) was given at varied concentrations and then cultured. Genomic DNA was extracted from the cells collected at Day 12 and was used as a template to PCR-amplify each bar code sequence. After that, deep-sequencing was performed with a next-generation sequencer. The effects of each mutation on the drug sensitivity and the cell proliferation potential were assessed from a change in the ratio of bar code read counts between the case of no chemical treatment and the case of chemical treatment.
The results were normalized while the read count when no chemical was given was set to 1.
When functional BRCA2 is introduced into cells, homologous recombination-mediated repair function is restored, and thus the sensitivity to the drug, a PARP inhibitor, decreases and the cells become resistant to the inhibitor. By contrast, cells having a function-deficient BRCA2 introduced are sensitive to the PARP inhibitor, so that the relative cell count decreases when the PARP inhibitor is added. Based on such criteria, the function of each mutated BRCA2 was examined. […] Thus, the mutation was determined to be a function-preserving, benign mutation, which is consistent with past reports.

[2] = tested on: DLD1 BRCA2 (−/−) line with introduced BRCA2 mutations; assay: MANO-B method, Clinvar BRCA2 mutations, olaparib 1 μM (Example 8, FIG. 9); assay type: cell-based
Protocol: as §1, §2
Mutations registered at the Clinvar (https://www.ncbi.nlm.nih.gov/clinvar/) (18 kinds of benign mutation, 52 mutations of VUS or with conflicting interpretations, and 8 kinds of malignant mutation) were evaluated by the MANO-B method using the same procedure as of Example 7 (except that olaparib was used at 1 μM). As a result, most of the benign mutations or malignant mutations registered at the Clinvar were determined to be likewise benign or malignant, respectively, by the MANO-B method (data not shown).

`O=C(c1cc(Cc2n[nH]c(=O)c3ccccc23)ccc1F)N1CCN(C(=O)C2CC2)CC1` [olaparib] was tested, and the “relative read count (no chemical = 1)” value ([1]; BRCA2 C2535*, olaparib 1 nM) was 0.94, the “relative read count (no chemical = 1)” value ([1]; BRCA2 C2535*, olaparib 5 nM) was 0.78 and the “relative read count (no chemical = 1)” value ([1]; BRCA2 C2535*, olaparib 10 nM) was 0.77. The “relative read count (no chemical = 1)” value ([1]; BRCA2 C2535*, olaparib 50 nM) was 0.4, the “relative read count (no chemical = 1)” value ([1]; BRCA2 C2535*, olaparib 100 nM) was 0.27 and the “relative read count (no chemical = 1)” value ([1]; BRCA2 C2535*, olaparib 500 nM) was 0.08. For the same compound, the “relative read count (no chemical = 1)” value ([1]; BRCA2 C2535*, olaparib 1 μM) was 0.05, the “relative read count (no chemical = 1)” value ([1]; BRCA2 C3304*, olaparib 1 nM) was 0.98 and the “relative read count (no chemical = 1)” value ([1]; BRCA2 C3304*, olaparib 5 nM) was 1.14. For the same compound, the “relative read count (no chemical = 1)” value ([1]; BRCA2 C3304*, olaparib 10 nM) was 1.17, the “relative read count (no chemical = 1)” value ([1]; BRCA2 C3304*, olaparib 50 nM) was 0.94 and the “relative read count (no chemical = 1)” value ([1]; BRCA2 C3304*, olaparib 100 nM) was 0.69. The “relative read count (no chemical = 1)” value ([1]; BRCA2 C3304*, olaparib 500 nM) was 0.3, the “relative read count (no chemical = 1)” value ([1]; BRCA2 C3304*, olaparib 1 μM) was 0.29 and the “resistance of BRCA2 D2723H mutant to the PARP inhibitor” value ([1]; BRCA2 D2723H) was “did not exhibit resistance”. For the same compound, the “relative read count (no chemical = 1)” value ([1]; BRCA2 D2723H, olaparib 1 nM) was 0.97, the “relative read count (no chemical = 1)” value ([1]; BRCA2 D2723H, olaparib 5 nM) was 0.76 and the “relative read count (no chemical = 1)” value ([1]; BRCA2 D2723H, olaparib 10 nM) was 0.67. The “relative read count (no chemical = 1)” value ([1]; BRCA2 D2723H, olaparib 50 nM) was 0.34, the “relative read count (no chemical = 1)” value ([1]; BRCA2 D2723H, olaparib 100 nM) was 0.18 and the “relative read count (no chemical = 1)” value ([1]; BRCA2 D2723H, olaparib 500 nM) was 0.07. For the same compound, the “relative read count (no chemical = 1)” value ([1]; BRCA2 D2723H, olaparib 1 μM) was 0.07, the “relative read count (no chemical = 1)” value ([1]; BRCA2 K485*, olaparib 1 nM) was 0.79 and the “relative read count (no chemical = 1)” value ([1]; BRCA2 K485*, olaparib 5 nM) was 0.66. For the same compound, the “relative read count (no chemical = 1)” value ([1]; BRCA2 K485*, olaparib 10 nM) was 0.54, the “relative read count (no chemical = 1)” value ([1]; BRCA2 K485*, olaparib 50 nM) was 0.26 and the “relative read count (no chemical = 1)” value ([1]; BRCA2 K485*, olaparib 100 nM) was 0.15. The “relative read count (no chemical = 1)” value ([1]; BRCA2 K485*, olaparib 500 nM) was 0.06, the “relative read count (no chemical = 1)” value ([1]; BRCA2 K485*, olaparib 1 μM) was 0.05 and the “relative read count (no chemical = 1)” value ([1]; BRCA2 K1984*, olaparib 1 nM) was 0.94. For the same compound, the “relative read count (no chemical = 1)” value ([1]; BRCA2 K1984*, olaparib 5 nM) was 0.84, the “relative read count (no chemical = 1)” value ([1]; BRCA2 K1984*, olaparib 10 nM) was 0.77 and the “relative read count (no chemical = 1)” value ([1]; BRCA2 K1984*, olaparib 50 nM) was 0.36. For the same compound, the “relative read count (no chemical = 1)” value ([1]; BRCA2 K1984*, olaparib 100 nM) was 0.25, the “relative read count (no chemical = 1)” value ([1]; BRCA2 K1984*, olaparib 500 nM) was 0.08 and the “relative read count (no chemical = 1)” value ([1]; BRCA2 K1984*, olaparib 1 μM) was 0.05. For the same compound, the “resistance of BRCA2 K2729N mutant to the PARP inhibitor compared with the wild-type” value ([1]; BRCA2 K2729N) was “substantially the same resistance”, the “relative read count (no chemical = 1)” value ([1]; BRCA2 K2729N, olaparib 1 nM) was 1.08 and the “relative read count (no chemical = 1)” value ([1]; BRCA2 K2729N, olaparib 5 nM) was 1.58. For the same compound, the “relative read count (no chemical = 1)” value ([1]; BRCA2 K2729N, olaparib 10 nM) was 1.36, the “relative read count (no chemical = 1)” value ([1]; BRCA2 K2729N, olaparib 50 nM) was 1.74 and the “relative read count (no chemical = 1)” value ([1]; BRCA2 K2729N, olaparib 100 nM) was 2.31. The “relative read count (no chemical = 1)” value ([1]; BRCA2 K2729N, olaparib 500 nM) was 4.76, the “relative read count (no chemical = 1)” value ([1]; BRCA2 K2729N, olaparib 1 μM) was 3.72 and the “relative read count (no chemical = 1)” value ([1]; BRCA2 L997*, olaparib 1 nM) was 0.85. The “relative read count (no chemical = 1)” value ([1]; BRCA2 L997*, olaparib 5 nM) was 0.71, the “relative read count (no chemical = 1)” value ([1]; BRCA2 L997*, olaparib 10 nM) was 0.54 and the “relative read count (no chemical = 1)” value ([1]; BRCA2 L997*, olaparib 50 nM) was 0.24. The “relative read count (no chemical = 1)” value ([1]; BRCA2 L997*, olaparib 100 nM) was 0.13, the “relative read count (no chemical = 1)” value ([1]; BRCA2 L997*, olaparib 500 nM) was 0.06 and the “relative read count (no chemical = 1)” value ([1]; BRCA2 L997*, olaparib 1 μM) was 0.07. For the same compound, the “relative read count (no chemical = 1)” value ([1]; BRCA2 Q1502*, olaparib 1 nM) was 1, the “relative read count (no chemical = 1)” value ([1]; BRCA2 Q1502*, olaparib 5 nM) was 0.88 and the “relative read count (no chemical = 1)” value ([1]; BRCA2 Q1502*, olaparib 10 nM) was 0.78. For the same compound, the “relative read count (no chemical = 1)” value ([1]; BRCA2 Q1502*, olaparib 50 nM) was 0.43, the “relative read count (no chemical = 1)” value ([1]; BRCA2 Q1502*, olaparib 100 nM) was 0.24 and the “relative read count (no chemical = 1)” value ([1]; BRCA2 Q1502*, olaparib 500 nM) was 0.12. The “relative read count (no chemical = 1)” value ([1]; BRCA2 Q1502*, olaparib 1 μM) was 0.07, the “relative read count (no chemical = 1)” value ([1]; BRCA2 W2970*, olaparib 1 nM) was 0.97 and the “relative read count (no chemical = 1)” value ([1]; BRCA2 W2970*, olaparib 5 nM) was 0.93. For the same compound, the “relative read count (no chemical = 1)” value ([1]; BRCA2 W2970*, olaparib 10 nM) was 0.75, the “relative read count (no chemical = 1)” value ([1]; BRCA2 W2970*, olaparib 50 nM) was 0.45 and the “relative read count (no chemical = 1)” value ([1]; BRCA2 W2970*, olaparib 100 nM) was 0.22. For the same compound, the “relative read count (no chemical = 1)” value ([1]; BRCA2 W2970*, olaparib 500 nM) was 0.09, the “relative read count (no chemical = 1)” value ([1]; BRCA2 W2970*, olaparib 1 μM) was 0.07 and the “relative read count (no chemical = 1)” value ([1]; BRCA2 wild type, olaparib 1 nM) was 1.22. For the same compound, the “relative read count (no chemical = 1)” value ([1]; BRCA2 wild type, olaparib 5 nM) was 1.52, the “relative read count (no chemical = 1)” value ([1]; BRCA2 wild type, olaparib 10 nM) was 1.92 and the “relative read count (no chemical = 1)” value ([1]; BRCA2 wild type, olaparib 50 nM) was 3.19. For the same compound, the “relative read count (no chemical = 1)” value ([1]; BRCA2 wild type, olaparib 100 nM) was 3.82, the “relative read count (no chemical = 1)” value ([1]; BRCA2 wild type, olaparib 500 nM) was 4.2 and the “relative read count (no chemical = 1)” value ([1]; BRCA2 wild type, olaparib 1 μM) was 4.42. The “relative read count (no chemical = 1)” value ([1]; Empty vector, olaparib 1 nM) was 0.98, the “relative read count (no chemical = 1)” value ([1]; Empty vector, olaparib 5 nM) was 0.82 and the “relative read count (no chemical = 1)” value ([1]; Empty vector, olaparib 10 nM) was 0.69. For the same compound, the “relative read count (no chemical = 1)” value ([1]; Empty vector, olaparib 50 nM) was 0.38, the “relative read count (no chemical = 1)” value ([1]; Empty vector, olaparib 100 nM) was 0.21 and the “relative read count (no chemical = 1)” value ([1]; Empty vector, olaparib 500 nM) was 0.07. For the same compound, the “relative read count (no chemical = 1)” value ([1]; Empty vector, olaparib 1 μM) was 0.05, the “MANO-B group of VUS / conflicting-interpretation BRCA2 mutations” value ([2]; 5 mutants: D2913H, P2639L, S3291C, D23V, and I2664M) was “impossible-to-determine (the thresholds were set to 0.1 and 0.5 and the mutations were grouped into 3 groups of benign, malignant, and impossible-to-determine mutations)” and the “MANO-B group of VUS / conflicting-interpretation BRCA2 mutations” value ([2]; 9 mutants: R2659G, N3124I, L2604P, W31C, E2663K, W2626R, D3073G, G2609D, and P2329L) was “malignant (the thresholds were set to 0.1 and 0.5 and the mutations were grouped into 3 groups of benign, malignant, and impossible-to-determine mutations)”. For the same compound, the “MANO-B group of VUS / conflicting-interpretation BRCA2 mutations” value ([2]; 38 mutants: R2896C, A2643G, S142N, N854S, Y42C, G602V, T3387A, T2412A, E3096K, E2020K, S3319F, V1532F, E747G, S2697N, K2411T, P3054S, Q147R, S445Y, S755C, Y600C, K2075N, V159E, P41L, H595Y, F266L, R3385H, T2337A, I2627V, I1167V, N55S, V208G, P3292L, S1074C, T598A, T2071, R324T, A2911V, E1695V) was “benign (the thresholds were set to 0.1 and 0.5 and the mutations were grouped into 3 groups of benign, malignant, and impossible-to-determine mutations)”, the “MANO-B score, highest score of the malignant mutations” value ([2]; BRCA2 G2724W) was 0.03839 and the “MANO-B score, lowest score of the benign mutations” value ([2]; BRCA2 N2436I) was 0.7386.
